What was measured:
Format in all cases: biochemical
Settings in all cases: NADPH, pH 7.0, 30° C.
[1] = molecular target: T1, alcohol dehydrogenase KpADH mutant M9 (S196G/S237C of SEQ ID No. 1) (Vanderwaltozyma polyspora, UniProt A7TM80, S196G/S237C); assay: Kinetic analysis of KpADH mutant M9 (control example) with CPMK
T1 construct: control mutant M9
Protocol: In an embodiment of the present disclosure, the mutant includes the substitution of glycine for serine at position 196 of the alcohol dehydrogenase with the amino acid sequence shown in SEQ ID No. 1, and the substitution of cysteine for serine at position 237, which is named M9.
(§1) Adopting a total reaction system of 200 μL including: 1.0 mM NADPH, 1.0 mM substrate CPMK and sodium phosphate buffer (PBS, 100 mM, pH 7.0), fully and evenly mixing, maintaining at 30° C. for 2 min, adding an appropriate amount of enzyme solution, and detecting the change in light absorption at 340 nm.
(§2) The enzyme activity was calculated by the following formula: Enzyme activity (U)=EW×V×10^3/(6220×1);
(§3) in the formula, EW is the change in absorbance at 340 nm in 1 min; V is the volume of a reaction solution in mL; 6220 is the molar extinction coefficient of NADPH in L/(mol·cm); and 1 is the optical path distance in cm. One activity unit (U) corresponds to the amount of enzyme required to catalyze the oxidation of 1 μmol NADPH per minute under the above conditions. […]
(§4) The activity of KpADH at different substrate concentrations and coenzyme concentrations was determined, and a double reciprocal curve was made based on the reciprocal of activity and substrate concentration to calculate kinetic parameters.

[2] = molecular target: T2, alcohol dehydrogenase KpADH, wild type, SEQ ID No. 2 (Vanderwaltozyma polyspora, UniProt A7TM80); assay: Kinetic analysis of KpADH wild type with CPMK
T2 sequence (A7TM80 1-342): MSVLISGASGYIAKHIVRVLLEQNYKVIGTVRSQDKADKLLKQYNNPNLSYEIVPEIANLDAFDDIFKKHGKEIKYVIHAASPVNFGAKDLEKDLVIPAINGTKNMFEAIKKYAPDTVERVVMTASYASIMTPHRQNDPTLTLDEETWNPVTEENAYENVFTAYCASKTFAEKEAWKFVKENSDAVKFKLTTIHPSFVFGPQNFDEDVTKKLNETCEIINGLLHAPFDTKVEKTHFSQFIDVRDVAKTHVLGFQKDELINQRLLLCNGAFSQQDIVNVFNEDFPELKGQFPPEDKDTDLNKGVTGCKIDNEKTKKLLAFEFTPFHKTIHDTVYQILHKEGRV
Protocol: as §1, §2
in the formula, EW is the change in absorbance at 340 nm in 1 min; V is the volume of a reaction solution in mL; 6220 is the molar extinction coefficient of NADPH in L/(mol·cm); and 1 is the optical path distance in cm. One activity unit (U) corresponds to the amount of enzyme required to catalyze the oxidation of 1 μmol NADPH per minute under the above conditions.
A column used for purification was a nickel affinity column HisTrap FF crude, and purification was achieved through affinity chromatography using a histidine tag on recombinant protein. The nickel column was equilibrated with a solution A first, a crude enzyme solution was loaded, a penetrating peak was further eluted off using the solution A, and after equilibrium, a solution B (20 mM sodium phosphate, 500 mM NaCl, and 1000 mM imidazole, pH 7.4) was used for gradient elution to elute off the recombinant protein bound to the nickel column, so as to obtain the recombinant alcohol dehydrogenase mutant. The purified protein was subjected to activity measurement (CPMK as substrate, and NADPH as coenzyme) and SDS-PAGE analysis. […] The purified alcohol dehydrogenase protein was then replaced into a Tris-HCl (100 mM, pH 7.0) buffer using a Hi Trap Desalting column (GE Healthcare).
as §4

[3] = molecular target: T3, alcohol dehydrogenase KpADH mutant M5 (E214G/S237C/Q136N/S196G of SEQ ID No. 2) (Vanderwaltozyma polyspora, UniProt A7TM80, E214G/Q136N/S196G/S237C); assay: Kinetic analysis of KpADH mutant M5 with CPMK
T3 construct: mutant M5
Protocol: In an embodiment of the present disclosure, the mutant includes the substitution of glycine for glutamic acid at position 214 of the amino acid sequence shown in SEQ ID No. 2, the substitution of cysteine for serine at position 237, the substitution of asparaginate for glutamine at position 136, and the substitution of glycine for serine at position 196, which is named M5.
as §1, §2, §3, §4

[4] = molecular target: T4, alcohol dehydrogenase KpADH mutant M7 (E214V/T215S of SEQ ID No. 2) (Vanderwaltozyma polyspora, UniProt A7TM80, E214V/T215S); assay: Kinetic analysis of KpADH mutant M7 with CPMK
T4 construct: mutant M7
Protocol: In an embodiment of the present disclosure, the mutant includes the substitution of valine for glutamic acid at position 214 of the amino acid sequence shown in SEQ ID No. 2, and the substitution of serine for threonine at position 215, which is named M7.
as §1, §2, §3, §4

[5] = molecular target: T5, alcohol dehydrogenase KpADH mutant M8 (Q136N/F161V of SEQ ID No. 1) (Vanderwaltozyma polyspora, UniProt A7TM80, F161V/Q136N); assay: Kinetic analysis of KpADH mutant M8 (control example) with CPMK
T5 construct: control mutant M8
Protocol: In an embodiment of the present disclosure, the mutant includes the substitution of asparaginate for glutamine at position 136 of alcohol dehydrogenase with an amino acid sequence shown in SEQ ID No. 1, and the substitution of valine for phenylalanine at position 161, which is named M8.
as §1, §2, §3, §4

Q: With O=C(c1ccc(Cl)cc1)c1ccccn1 [CPMK, (4-chlorophenyl)-(pyridin-2-yl)-methanone] as the compound, how does the Kcat [1] read?
A: 17.6 s⁻¹

Q: And the Vmax [1]?
A: 26.5 µmol/min/mg

Q: And the Kcat [2]?
A: 11.8 s⁻¹

Q: What about the Km [2] of the same compound?
A: 410 µM

Q: What about the Vmax [2] of the same compound?
A: 17.9 µmol/min/mg

Q: And the Kcat [3]?
A: 17.0 s⁻¹

Q: And the Vmax [3]?
A: 21.3 µmol/min/mg

Q: And the Kcat [4]?
A: 14.2 s⁻¹

Q: What about the Vmax [4] of the same compound?
A: 21.3 µmol/min/mg

Q: What about the Kcat [5] of the same compound?
A: 14.8 s⁻¹

Q: What about the Vmax [5] of the same compound?
A: 22.3 µmol/min/mg

From patent US10865390B2, “Alcohol dehydrogenase mutant and application thereof in synthesis of diaryl chiral alcohols” (Jiangnan University, priority 2018, dated 2020)
